Experiments:
[1] = system: Histone deacetylase (HDAC), HeLa cell nuclear extract; experiment: In vitro fluorescent histone deacetylase assay (Biomol kit, HeLa cell nuclear extract); assay type: biochemical; conditions: compound at 100 μM; HeLa cell nuclear extract as HDAC source; substrate 50 μM; 10 min at room temperature
How it was run: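 HeLa nuclear extract supplies mixed HDAC activity acting on fluorogenic substrate at 50 μM final, 10 min at room temperature before stopping. Compounds serially diluted in assay buffer, final DMSO ≤2%. Fluorescence read at ex 355/em 460 nm.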

[2] = system: MCF7 cells; experiment: Whole cell cytotoxicity assay: Sulforhodamine B; assay type: cell-based, human; conditions: Homo sapiens; compound at 100 μM; MCF7 cell growth; 48 hours with drug; SRB staining
How it was run: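 MCF7 cells in DMEM with 10% FBS were seeded 24 h before compound, then exposed to nine concentrations for 48 h at 37° C. TCA-fixed cells stained with sulforhodamine B; absorbance at 570 nm, with a time-zero plate fixed at drug addition.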

| SMILES | % inhibition HDAC @ 100 μM [1] [%] | inhibition at 100 µM [2] [%] |
| --- | --- | --- |
| Cc1ccc(F)cc1S(=O)(=O)N1CCN(c2ncc(C(=O)NO)s2)CC1 [Example 33, 2-[4-(2-methyl-5-fluorophenylsulfonyl)-piperazin-1-yl]-thiazole-5-carboxylic acid hydroxyamide] | 96 | 98.4 |
| CN(C)Cc1cccc(-c2ccc(S(=O)(=O)N3CCN(c4ncc(C(=O)NO)s4)CC3)cc2)c1.Cl [Example 74] | 100 | 97.3 |
| Cc1cc(C)cc(S(=O)(=O)N2CCN(c3ncc(C(=O)NO)s3)CC2)c1 [Example 24, 2-[4-(3,5-dimethylphenylsulfonyl)-piperazin-1-yl]-thiazole-5-carboxylic acid hydroxyamide] | 100 | 95.3 |
| CN(C)Cc1sccc1-c1ccc(S(=O)(=O)N2CCN(c3ncc(C(=O)NO)s3)CC2)cc1 [Example 81] | 100 | 97.1 |
| Cc1cc(F)ccc1S(=O)(=O)N1CCN(c2ncc(C(=O)NO)s2)CC1 [Example 41, 2-[4-(4-fluoro-2-methylphenylsulfonyl)-piperazin-1-yl]-thiazole-5-carboxylic acid hydroxyamide] | 98 | 98.1 |
| O=C(NO)c1cnc(N2CCN(S(=O)(=O)c3ccc(-c4ccccc4)cc3)CC2)s1 [Example 9, 2-[4-(biphenyl-4-sulfonyl)-piperazin-1-yl]-thiazole-5-carboxylic acid hydroxyamide] | 97 | 97.7 |
| O=C(NO)c1cnc(N2CCN(S(=O)(=O)c3ccc(-c4ccc(Cl)cc4)cc3)CC2)s1 [Example 62] | 98 | 75 |
| CCCc1ccc(S(=O)(=O)N2CCN(c3ncc(C(=O)NO)s3)CC2)cc1 [Example 23, 2-[4-(4-n-propylphenylsulfonyl)-piperazin-1-yl]-thiazole-5-carboxylic acid hydroxyamide] | 99 | 96.7 |
| O=C(NO)c1cnc(N2CCN(S(=O)(=O)Cc3ccccc3)CC2)s1 [Example 26, 2-[4-(benzylsulfonyl)piperazin-1-yl]-thiazole-5-carboxylic acid hydroxyamide] | 98 | 90 |
| O=C(NO)c1cnc(N2CCN(S(=O)(=O)c3ccc(CN4CCCC4)cc3)CC2)s1 [Example 105] | 99 | 93 |
| CSc1nccc(-c2ccc(S(=O)(=O)N3CCN(c4ncc(C(=O)NO)s4)CC3)s2)n1 [Example 45, 2-[4-(2-{2-methylthiopyrimidine-4-yl}-5-thiophenesulfonyl)-piperazin-1-yl]-thiazole-5-carboxylic acid hydroxyamide] | 95 | 78.7 |
| O=C(NO)c1cnc(N2CCN(S(=O)(=O)c3ccc(OC(F)(F)F)cc3)CC2)s1 [Example 3, 2-[4-(4-trifluoromethoxy-benzenesulfonyl)-piperazin-1-yl]-thiazole-5-carboxylic acid hydroxyamide] | 93 | 95.3 |
| Cl.O=C(NO)c1cnc(N2CCN(S(=O)(=O)c3ccc(-c4cccc(CN5CCCC5)c4)cc3)CC2)s1 [Example 75] | 100 | 98.6 |
| O=C(NO)c1cnc(N2CCN(S(=O)(=O)c3ccc(N4CCCC4)cc3)CC2)s1 [Example 13, 2-[4-(4-pyrolidinylbenzenesulfonyl)-piperazin-1-yl]-thiazole-5-carboxylic acid hydroxyamide] | 99 | 98.9 |
| O=C(NO)c1cnc(N2CCN(S(=O)(=O)c3cccc(Cl)c3)CC2)s1 [Example 18, 2-[4-(3-chlorophenylsulfonyl)-piperazin-1-yl]-thiazole-5-carboxylic acid hydroxyamide] | 95 | 96.6 |
